A short description of series [1]: Cmax in mouse at 10 mg/kg, po. The following applies: in vivo. Type of series: ADME, organism-based. More on the design: route oral, dose 10 mg/kg.
A short description of series [2]: AUC (0 to 24 hrs) in mouse at 10 mg/kg, po. To be noted: in vivo. Type of series: ADME, organism-based. More on the design: time < 24 hr, route oral, dose 10 mg/kg.
A short description of series [3]: Clearance in mouse at 10 mg/kg, po. The following applies: in vivo. It counts as ADME, organism-based.
The nature of series [4]: Volume of distribution at steady state in mouse at 10 mg/kg, po. To be noted: in vivo. Type of series: ADME, organism-based.
Series [5] can be described thus: Oral bioavailability in mouse at 10 mg/kg. Type of series: ADME, organism-based. The following applies: in vivo.
A short description of series [6]: Stability in human liver microsomes assessed as parent compound remaining after 10 mins. It counts as ADME, Microsome. The following applies: read-out: Stabilty. Background: Liver microsomes are vesicles of endoplasmic reticulum, rich in cytochrome P450 enzymes.
Series [7] in a line: Stability in rat liver microsomes assessed as parent compound remaining after 10 mins. Type of series: ADME, Microsome. The following applies: read-out: Stabilty.
Series [8] is described as follows: Stability in mouse liver microsomes assessed as parent compound remaining after 10 mins. Type of series: ADME, Microsome. To be noted: read-out: Stabilty.
Series [9] can be described thus: Aqueous solubility of compound at pH 6.5. It counts as physicochemical. To be noted: aqueous solution.
A short description of series [10]: Cmax in rat at 10 mg/kg, po. Also noted: route oral, dose 10 mg/kg. Type of series: ADME, organism-based. To be noted: in vivo.
Series [11] is described as follows: AUC (0 to 24 hrs) in rat at 10 mg/kg, po. Type of series: ADME, organism-based. The following applies: in vivo. Also noted: time < 24 hr, route oral, dose 10 mg/kg.
The nature of series [12]: Clearance in rat at 10 mg/kg, po. The following applies: in vivo. Type of series: ADME, organism-based.
A short description of series [13]: Volume of distribution at steady state in rat at 10 mg/kg, po. It counts as ADME, organism-based. To be noted: in vivo.
The nature of series [14]: Oral bioavailability in rat at 10 mg/kg. It counts as ADME, organism-based. To be noted: in vivo.
Series [15] in a line: Cmax in cynomolgus monkey at 7 mg/kg, po. Also noted: route oral, dose 7 mg/kg. To be noted: in vivo. Type of series: ADME, organism-based, Macaca fascicularis.
The nature of series [16]: AUC (0 to 24 hrs) in cynomolgus monkey at 7 mg/kg, po. The following applies: in vivo. It counts as ADME, organism-based, Macaca fascicularis. More on the design: time < 24 hr, route oral, dose 7 mg/kg.
Series [17] is described as follows: Clearance in cynomolgus monkey at 7 mg/kg, po. Type of series: ADME, organism-based, Macaca fascicularis. To be noted: in vivo.
Series [18] can be described thus: Volume of distribution at steady state in cynomolgus monkey at 7 mg/kg, po. Type of series: ADME, organism-based, Macaca fascicularis. The following applies: in vivo.
Series [19] can be described thus: Oral bioavailability in cynomolgus monkey at 7 mg/kg. It counts as ADME, organism-based, Macaca fascicularis. To be noted: in vivo.
Series [20] is described as follows: Cmax in dog at 10 mg/kg, po. It counts as ADME, organism-based, Canis lupus familiaris. More on the design: route oral, dose 10 mg/kg. The following applies: in vivo.
The nature of series [21]: AUC (0 to 24 hrs) in dog at 10 mg/kg, po. Also noted: time < 24 hr, route oral, dose 10 mg/kg. The following applies: in vivo. It counts as ADME, organism-based, Canis lupus familiaris.
Series [22] can be described thus: Clearance in dog at 10 mg/kg, po. Type of series: ADME, organism-based, Canis lupus familiaris. To be noted: in vivo.
A short description of series [23]: Volume of distribution at steady state in dog at 10 mg/kg, po. Type of series: ADME, organism-based, Canis lupus familiaris. The following applies: in vivo.
Series [24] in a line: Oral bioavailability in dog at 10 mg/kg. Type of series: ADME, organism-based, Canis lupus familiaris. To be noted: in vivo.
Series [25] can be described thus: Half life in mouse liver microsomes. It counts as ADME, Microsome.
Series [26] can be described thus: Half life in rat liver microsomes. It counts as ADME, Microsome.
Series [27] is described as follows: Half life in monkey liver microsomes. Type of series: ADME, Macaca mulatta, Microsome. The following applies: rhesus monkey.
Series [28] in a line: Half life in human liver microsomes. It counts as ADME, Microsome.
A short description of series [29]: Half life in dog liver microsomes. Type of series: ADME, Canis lupus familiaris, Microsome.

The source of these data is ChEMBL document CHEMBL4765480 (J Med Chem, 2021).

Converted amounts (≈) assume the structure as drawn.

Usually Cmax stands for the peak of the concentration-time curve. Usually AUC(0-t) stands for the area under the concentration-time curve up to a stated or last time point. Broadly, the CL/F is the apparent clearance, not corrected for the fraction that reaches the circulation. For orientation: bioavailability means dose-corrected exposure relative to a reference, in per cent. One may read the solubility as the concentration that dissolves in the medium under given conditions. As a reminder, the half-life is how long it takes for the measured level to halve.

`[2H]C([2H])([2H])NC(=O)c1nnc(NC(=O)C2CC2)cc1Nc1cccc(-c2cnc(C(=O)N(C)C)cn2)c1OC`: the Cmax in [1] was 7.8 µM. In addition, the AUC(0-t) at 24 h in series [2] came out at 19 µM·h. For the same molecule, in series [3], the CL/F was 7.6 mL/min/kg. In [4], this molecule gave a Vdss of 1.5 L/kg. In series [5], this molecule gave a bioavailability of 43%.

Turning to `[2H]C([2H])([2H])NC(=O)c1nnc(NC(=O)C2CC2)cc1Nc1cccc(-c2ccncn2)c1OC`, the remaining at 10 min worked out at 48% in series [6], 3% in series [7] and 3% in [8].

On to `[2H]C([2H])([2H])NC(=O)c1nnc(NC(=O)C2CC2)cc1Nc1cccc(-c2cnccn2)c1OC`, for which the remaining at 10 min in series [6] turned out to be 58%; in series [7] it was 1%; in [8], 1%.

Regarding `[2H]C([2H])([2H])NC(=O)c1nnc(NC(=O)C2CC2)cc1Nc1cccc(-c2cccnn2)c1OC`, the remaining at 10 min is 60% in series [6], 8% in series [7] and 0% in [8].

For the molecule `[2H]C([2H])([2H])NC(=O)c1cnc(NC(=O)C2CC2)cc1Nc1cccc(-c2ncccn2)c1OC`, the concentration in solution in [9] (solubility) was 32 µg/mL (≈ 75.9 µM).

In series [9], `[2H]C([2H])([2H])NC(=O)c1nnc(NC(=O)C2CC2)cc1Nc1cccc(-c2ncc(C(C)(C)O)cn2)c1OC` had a solubility of 14 µg/mL (≈ 29.1 µM).

Turning to `[2H]C([2H])([2H])NC(=O)c1nnc(NC(=O)C2CC2)cc1Nc1cccc(-c2ncccn2)c1OC`, the remaining at 10 min in series [6] is 100%; in series [7], 77%; in series [8] it was 78%. Further, the solubility in series [9] is below 1 µg/mL. In series [1], this molecule gave a peak concentration (Cmax) of 5.4 µM. Besides, the AUC(0-t) at 24 h in series [2] turned out to be 15 µM·h. This molecule had a CL/F in series [3] of 7.9 mL/min/kg. The molecule also registered a Vdss in series [4] of 2.3 L/kg. Further, the bioavailability in series [5] came to 31%.

`[2H]C([2H])([2H])NC(=O)c1nnc(NC(=O)C2CC2)cc1Nc1cccc(-c2cnc(C(C)(C)O)cn2)c1OC`: the results for the remaining at 10 min in [6], in series [7] and in series [8] were 95%, 90% and 99%, respectively. The molecule further had a Cmax in series [1] of 6.1 µM. In series [2], this molecule returned an AUC(0-t) at 24 h of 26 µM·h. In addition, in series [3], the CL/F is 5.3 mL/min/kg. The molecule also showed a Vdss in series [4] of 3.4 L/kg. In series [5], this molecule registered a bioavailability of 41%.

Turning to `[2H]C([2H])([2H])NC(=O)c1nnc(NC(=O)C2CC2)cc1Nc1cccc(-c2ccccn2)c1OC`, the remaining at 10 min in series [6] amounted to 79%; in series [7], 34%; in [8] it was 42%.

On to `[2H]C([2H])([2H])NC(=O)c1cnc(NC(=O)C2CC2)cc1Nc1cccc(-c2ncc(F)cn2)c1OC` [BMS-986202], for which the Cmax in series [1] came out at 13 µM; in series [10] it was 13 µM; in series [15], 11 µM; in [20], 14 µM. The AUC(0-t) at 24 h in series [2] amounted to 65 µM·h; in [11], 77 µM·h; in series [16], 130 µM·h; in series [21] it was 126 µM·h. Besides, the CL/F in series [3] was found to be 3 mL/min/kg; in series [12], 3.6 mL/min/kg; in series [17], 2.3 mL/min/kg; in series [22], 1.8 mL/min/kg. Further, the Vdss in series [4] amounted to 1.1 L/kg; in series [13], 1.1 L/kg; in series [18], 7 L/kg; in series [23], 1.5 L/kg. Moreover, the bioavailability in [5] is 62%; in [14], 72%; in series [19] it was 100%; in series [24], 100%. For the same molecule, the half-life in series [25] is above 2 h; in series [26], above 2 h; in [27] it was above 2 h; in series [28], above 2 h; in series [29], 1.48 h.

As to `[2H]C([2H])([2H])NC(=O)c1nnc(NC(=O)C2CC2)cc1Nc1cccc(-c2ncn(C)n2)c1OC` [DEUCRAVACITINIB], the remaining at 10 min is 98% in [6], 100% in series [7] and 89% in series [8].
